Results as given in PubChem BioAssay (NCI).
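Cultured in 96-well plates, cells were exposed to test compound for 48 hours across five concentrations. TGI marks complete inhibition of growth.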

Experiments:
Test in all cases: growth of human tumour cells (NCI), 48 h
U251 CNS = system: U251 CNS
K-562 leukemia = system: K-562 leukemia
SK-MEL-5 melanoma = system: SK-MEL-5 melanoma
CAKI-1 renal = system: CAKI-1 renal
M14 melanoma = system: M14 melanoma
MOLT-4 leukemia = system: MOLT-4 leukemia
SNB-19 CNS = system: SNB-19 CNS
NCI-H460 lung = system: NCI-H460 lung
KM12 colon = system: KM12 colon
HL-60(TB) leukemia = system: HL-60(TB) leukemia
RXF 393 renal = system: RXF 393 renal
MDA-MB-231 breast = system: MDA-MB-231 breast
HCT-116 colon = system: HCT-116 colon
CCRF-CEM leukemia = system: CCRF-CEM leukemia
OVCAR-5 ovarian = system: OVCAR-5 ovarian
COLO 205 colon = system: COLO 205 colon
MDA-N = system: MDA-N
IGROV1 ovarian = system: IGROV1 ovarian
A549 NSCLC = system: A549 NSCLC
MCF7 breast = system: MCF7 breast
UO-31 renal = system: UO-31 renal
EKVX NSCLC = system: EKVX NSCLC
TK-10 renal = system: TK-10 renal
SNB-75 CNS = system: SNB-75 CNS
PC-3 prostate = system: PC-3 prostate
DU-145 prostate = system: DU-145 prostate
HOP-62 NSCLC = system: HOP-62 NSCLC
LOX IMVI melanoma = system: LOX IMVI melanoma
SN12C renal = system: SN12C renal
SF-268 CNS = system: SF-268 CNS
SW-620 colon = system: SW-620 colon
RPMI-8226 leukemia = system: RPMI-8226 leukemia
HT29 colon = system: HT29 colon
NCI/ADR-RES ovarian = system: NCI/ADR-RES ovarian
OVCAR-3 ovarian = system: OVCAR-3 ovarian
UACC-62 melanoma = system: UACC-62 melanoma
NCI-H23 lung = system: NCI-H23 lung
HCT-15 colon = system: HCT-15 colon
SR leukemia = system: SR leukemia
OVCAR-8 ovarian = system: OVCAR-8 ovarian
MDA-MB-435 = system: MDA-MB-435
T-47D breast = system: T-47D breast
HS 578T breast = system: HS 578T breast
UACC-257 melanoma = system: UACC-257 melanoma
SK-MEL-28 melanoma = system: SK-MEL-28 melanoma
OVCAR-4 ovarian = system: OVCAR-4 ovarian
SK-OV-3 ovarian = system: SK-OV-3 ovarian
SF-539 CNS = system: SF-539 CNS
MALME-3M melanoma = system: MALME-3M melanoma
ACHN renal = system: ACHN renal
BT-549 breast = system: BT-549 breast
SF-295 CNS = system: SF-295 CNS
HOP-92 NSCLC = system: HOP-92 NSCLC
HCC-2998 colon = system: HCC-2998 colon
A498 renal = system: A498 renal
NCI-H226 lung = system: NCI-H226 lung
786-0 renal = system: 786-0 renal
NCI-H522 lung = system: NCI-H522 lung
SK-MEL-2 melanoma = system: SK-MEL-2 melanoma

Measured: TGI

COc1ccc(-c2c(C#N)c(NC(=S)NC(=O)c3ccccc3)nc3c2CCCC3)cc1OC
89 µM: T-47D breast
68.1 µM: RXF 393 renal
70.4 µM: EKVX NSCLC
not listed: HOP-92 NSCLC | HCC-2998 colon | A498 renal | NCI-H226 lung | 786-0 renal | NCI-H522 lung | SK-MEL-2 melanoma
> 100 µM: all other assays above

Cc1c(Cc2ccccc2)n(COCCCO)c(=O)[nH]c1=O
not listed: HL-60(TB) leukemia | SR leukemia
> 100 µM: all other assays above
